These results are taken from patent US4316898A, “Cephalosporins” (Boehringer Ingelheim KG, priority 1979, dated 1982).

≈ marks a conversion by molar mass, not a printed value.

Assay [1] has as its system Staphylococcus aureus SG 511. Nature of the assay: Serial dilution test in the microtiter system, MIC against S. aureus SG 511. It is filed as cell-based. The conditions noted are these: SG511, minimum inhibitory concentration, 37° C., 18 to 20 hours. As for the experimental part: (§1) The tests were performed using the serial dilution test in the microtiter system. The effect of the test compounds on bacteriostasis was examined at the following concentrations: 80, 40, 20, 10, 5, 2.5, 1.25, 0.6, 0.3, 0.08 and 0.02 μgm/ml. The nutrient medium consisted of 10 gm of peptone, 8 gm of meat extract oxoid, 3 gm of sodium chloride, and 2 gm of sec. sodium phosphate diluted with distilled water to […] (pH 7.2-7.4). Only in the test against streptococci 1% of glucose was added. The age of the primary cultures was approximately 20 hours. The standardization of the bacteria suspension was effected using a photometer according to the method of Eppendorf (test tube .phi. 14 mm, filter 546 nm), using for comparison a barium sulfate suspension formed by the addition of 3.0 ml of 1% barium chloride solution to 97 ml of 1% sulfuric acid. After the standardization,Streptococcus aronson was further diluted to a concentration of 1:15, and the other bacteria to a concentration of 1:1500, using a sodium chloride solution.
(§2) 16 mgm of the particular test compound were put into a 10 ml measuring flask, and the flask was subsequently filled to the mark with solvent. The further dilution series was standardized with distilled water or the appropriate solvent.
(§3) The cavities of the microtiter plates were filled with 0.2 ml of nutrient medium. 0.01 ml of the appropriate test compound solution was then added, followed by inoculation with 0.01 ml of the standardized bacteria suspension. The bacteria were incubated at 37° C. for 18 to 20 hours. Control tests using only the solvent were carried out simultaneously.
(§4) The measurement was carried out macroscopically to determine the minimum inhibitory concentration (the lowest still bacteriostatically effective concentration).
(§5) The following test organisms were used:
(§6) Staphylococcus aureus SG 511, St. aureus E 88 (β-lactamase carrier), Escherichia coli ATCC 11 775, Pseudomonas aeruginosa Hamburgensis and Pseudomonas aeruginosa Walter, Serratia macrescens ATCC 13 880, Klebsiella pneumoniae ATCC 10 031 and 272, Proteus mirabilis Hamburgensis, Proteus rettgeri Eb. cloaceae ATCC 13047, and E. coli R+TEM (β-lactamase carrier).
(§7) The following tables show the determined minimum inhibitory concentrations (MIC) for a few representative compounds (E=Na) of the present invention, and two known cephalosporins for comparison: […]

Another assay concerns St. aureus E 88. Put plainly: Serial dilution test in the microtiter system, MIC against S. aureus E 88 (β-lactamase carrier). Type of assay: cell-based. To be noted: Staphylococcus aureus, E88, minimum inhibitory concentration, 37° C., 18 to 20 hours. As for the experimental part: as §1, §2, §3, §4, §5, §6, §7
Assay [2] relates to Escherichia coli ATCC 11 775. Nature of the assay: Serial dilution test in the microtiter system, MIC against E. coli ATCC 11775. It is filed as cell-based. The conditions noted are these: minimum inhibitory concentration, 37° C., 18 to 20 hours. Here is the method: as §1, §2, §3, §4, §5, §6, §7
Assay [3] deals with Pseudomonas aeruginosa Hamburgensis. Put plainly: Serial dilution test in the microtiter system, MIC against Pseudomonas aeruginosa Hamburgensis. It is filed as cell-based. To be noted: minimum inhibitory concentration, 37° C., 18 to 20 hours, read-out: MIC, Pseud. aerug. Hbg. Here is the method:
as §1, §2, §3, §4, §5, §6, §7

For assay [4], the system named is Pseudomonas aeruginosa Walter. Nature of the assay: Serial dilution test in the microtiter system, MIC against Pseudomonas aeruginosa Walter. To be noted: minimum inhibitory concentration, 37° C., 18 to 20 hours, read-out: MIC, Pseud. aerug. Walter. It is filed as cell-based. As for the experimental part: as §1, §2, §3, §4, §5, §6, §7
Assay [5] deals with Klebsiella pneumoniae ATCC 10 031. Put plainly: Serial dilution test in the microtiter system, MIC against Klebsiella pneumoniae ATCC 10031. It is filed as cell-based. To be noted: minimum inhibitory concentration, 37° C., 18 to 20 hours, read-out: MIC, Klebs. pneum. ATCC 10031. As for the experimental part: as §1, §2, §3, §4, §5, §6, §7
Assay [6] relates to Klebsiella pneumoniae 272. Put plainly: Serial dilution test in the microtiter system, MIC against Klebsiella pneumoniae 272. It is filed as cell-based. The conditions noted are these: minimum inhibitory concentration, 37° C., 18 to 20 hours, read-out: MIC, Klebs. pneum. 272. Here is the method: as §1, §2, §3, §4, §5, §6, §7
For assay [7], the system named is Proteus mirabilis Hamburgensis. Nature of the assay: Serial dilution test in the microtiter system, MIC against Proteus mirabilis Hamburgensis. It is filed as cell-based. To be noted: minimum inhibitory concentration, 37° C., 18 to 20 hours, read-out: MIC, Prot. Mir. Hbg. Here is the method: as §1, §2, §3, §4, §5, §6, §7
The subject of the next assay is Proteus rettgeri. Put plainly: Serial dilution test in the microtiter system, MIC against Proteus rettgeri. The conditions noted are these: Providencia rettgeri; minimum inhibitory concentration; 37° C., 18 to 20 hours; read-out: MIC, Prot. rettg. Type of assay: cell-based. As for the experimental part:
as §1, §2, §3, §4, §5, §6, §7

Another assay concerns Eb. cloaceae ATCC 13047. Put plainly: Serial dilution test in the microtiter system, MIC against Eb. cloaceae ATCC 13047. It is filed as cell-based. The conditions noted are these: minimum inhibitory concentration; 37° C., 18 to 20 hours. Here is the method: as §1, §2, §3, §4, §5, §6, §7
Another assay has as its system E. coli R+TEM. Put plainly: Serial dilution test in the microtiter system, MIC against E. coli R+TEM (β-lactamase carrier). It is filed as cell-based. To be noted: Escherichia coli, read-out: MIC, E. coli R + TEM. Here is the method: as §1, §2, §3, §4, §5, §6, §7
Assay [8] relates to Serratia macrescens ATCC 13 880. Put plainly: Serial dilution test in the microtiter system, MIC against Serratia marcescens ATCC 13880. The conditions noted are these: read-out: MIC, Serr. marcesc. ATCC 13880. It is filed as cell-based. Here is the method:
as §1, §2, §3, §4, §5, §6, §7

Another assay has as its system E. coli ATCC 11775. Put plainly: In vivo test in mice against experimental E. coli infection. Details: species or system Female NMRI mice. The conditions noted are these: Escherichia coli, ATCC11775, sc, 168 h; subcutaneous; per dose; dose at which 50% of the animals survived; observation 7 days. Here is the method: (§8) A series of the compounds according to the invention was tested in vivo in mice against experimental infections. As pathogenic bacteria were used E. coli ATCC 11775 and Pseudomonas aeruginosa Walter. An intraperitoneal infection was induced in each mouse with 0.2 ml of a 5% mucin suspension of the bacteria corresponding of approximately 1.4×10^6 E. coli cells and 1.3×10^6 Pseudomonas cells per mouse. Female NMRI mice were used, divided into groups of 10 animals. Two groups were untreated and the remaining groups were treated with different doses of the cephalosporins to be tested to determine the ED50 (dose at which 50% of the animals survived). The groups infected with E. coli were on the first day treated with the test compound three times ([…] post infectionem) and on the second day twice. The groups with the Pseudomonas infection were on the first day treated with the test compound six times (1, 3, 5, 7, 9 and 11 hours post infectionem), and on the following two days twice.
(§9) The observation time was in both cases 7 days.

Assay [9] relates to Pseudomonas aeruginosa Walter. Put plainly: In vivo test in mice against experimental Pseudomonas infection. The arrangement: species or system Female NMRI mice. The conditions noted are these: subcutaneous, observation 7 days; for ED50: Pseudomonas aeruginosa, sc, 168 h, per dose, dose at which 50% of the animals survived. As for the experimental part:
as §8, §9

For `Cn1nnnc1SCC1=C(C(=O)O)N2C(=O)[C@@H](NC(=O)[C@H](NC(=O)Nc3cnc(C4CC4)nc3O)c3ccc(O)cc3)[C@H]2SC1` [A], the MIC in [1] is 0.5 mg/L (≈ 0.764 µM); in the assay with St. aureus E 88, 8 mg/L (≈ 12.2 µM); in assay [2] it was 0.5 mg/L (≈ 0.764 µM); in assay [3] it was 8 mg/L (≈ 12.2 µM); in assay [4] it was 8 mg/L (≈ 12.2 µM); in assay [5] it was 1 mg/L (≈ 1.53 µM). Further, the MIC in assay [6] came out at 1 mg/L (≈ 1.53 µM); in assay [7], 0.5 mg/L (≈ 0.764 µM); with Proteus rettgeri it was 2 mg/L (≈ 3.05 µM); against Eb. cloaceae ATCC 13047, 2 mg/L (≈ 3.05 µM); in the assay on E. coli R+TEM, 8 mg/L; in assay [8] it was 2 mg/L (≈ 3.05 µM). Moreover, the median effective dose (ED50) in the assay with E. coli ATCC 11775 was 1.6 mg/kg; in assay [9], 15.2 mg/kg.

Turning to `Cn1nnnc1SCC1=C(C(=O)O)N2C(=O)[C@@H](NC(=O)[C@H](NC(=O)Nc3cnc(Nc4ccc(S(N)(=O)=O)cc4)nc3O)c3ccc(O)cc3)[C@H]2SC1` [L], the minimal inhibitory concentration (MIC) in assay [1] is 0.5 mg/L (≈ 0.637 µM); in the assay with St. aureus E 88 it was 4 mg/L (≈ 5.1 µM); in assay [2], below 0.03 mg/L; in assay [3], 2 mg/L (≈ 2.55 µM); in assay [4] it was 2 mg/L (≈ 2.55 µM); in assay [5], 0.06 mg/L (≈ 0.0765 µM). Further, the MIC in assay [6] was 0.06 mg/L (≈ 0.0765 µM); in assay [7], below 0.06 mg/L; with Proteus rettgeri it was 0.13 mg/L (≈ 0.166 µM); against Eb. cloaceae ATCC 13047, 0.5 mg/L (≈ 0.637 µM); in the assay on E. coli R+TEM, 2 mg/L; in [8], 0.06 mg/L (≈ 0.0765 µM). Besides, the results for the ED50 (in the assay on E. coli ATCC 11775; in assay [9]) were 0.15 mg/kg and 2.1 mg/kg, respectively.

On to `CO/N=C(\C(=O)N[C@@H]1C(=O)N2C(C(=O)O)=C(COC(N)=O)CS[C@H]12)c1ccco1` [Cefuroxim, reference compound], for which the MIC was 1 mg/L (≈ 2.36 µM) in [1]; 16 mg/L (≈ 37.7 µM) against St. aureus E 88; 8 mg/L (≈ 18.9 µM) in [2]; above 100 mg/L in assay [3]; above 100 mg/L in assay [4]; 2 mg/L (≈ 4.71 µM) in assay [5]. For the same molecule, the minimum inhibitory concentration (MIC) in assay [6] is 4 mg/L (≈ 9.43 µM); in assay [7], 0.5 mg/L (≈ 1.18 µM); with Proteus rettgeri, 2 mg/L (≈ 4.71 µM); against Eb. cloaceae ATCC 13047, 32 mg/L (≈ 75.4 µM); in the assay with E. coli R+TEM, 4 mg/L; in assay [8], 8 mg/L (≈ 18.9 µM). Also, the 50% effect level with E. coli ATCC 11775 (ED50) was put at a dose of 37 mg/kg. Besides, the “Mortality, Pseudomonas infection” value in assay [9] (at 200 mg/kg per dose) was “all animals died”.

For `Cn1nnnc1SCC1=C(C(=O)O)N2C(=O)[C@@H](NC(=O)[C@H](NC(=O)Nc3cnc(NCCCO)nc3O)c3ccc(O)cc3)[C@H]2SC1` [E], the MIC was found to be 1 mg/L (≈ 1.45 µM) in assay [1]; 8 mg/L (≈ 11.6 µM) in the assay with St. aureus E 88; 0.25 mg/L (≈ 0.364 µM) in [2]; 4 mg/L (≈ 5.82 µM) in assay [3]; 8 mg/L (≈ 11.6 µM) in assay [4]; 0.5 mg/L (≈ 0.727 µM) in assay [5]. The minimum inhibitory concentration (MIC) in assay [6] came out at 1 mg/L (≈ 1.45 µM); in assay [7], 0.13 mg/L (≈ 0.189 µM); in the assay on Proteus rettgeri it was 1 mg/L (≈ 1.45 µM); in the assay on Eb. cloaceae ATCC 13047 it was 0.5 mg/L (≈ 0.727 µM); in the assay with E. coli R+TEM, 16 mg/L; in assay [8], 1 mg/L (≈ 1.45 µM). Moreover, the values for the ED50 (in the assay on E. coli ATCC 11775; in assay [9]) were 0.8 mg/kg and 11.2 mg/kg, respectively.

Consider `Cn1nnnc1SCC1=C(C(=O)O)N2C(=O)[C@@H](NC(=O)[C@H](NC(=O)Nc3cnc(NC4CCC(O)CC4)nc3O)c3ccc(O)cc3)[C@H]2SC1` (stereo partly shown) [C], for which the MIC in [1] turned out to be 1 mg/L (≈ 1.37 µM); in the assay with St. aureus E 88, 8 mg/L (≈ 11 µM); in assay [2] it was 0.13 mg/L (≈ 0.179 µM); in [3], 4 mg/L (≈ 5.5 µM); in assay [4], 4 mg/L (≈ 5.5 µM); in [5] it was 0.5 mg/L (≈ 0.687 µM). Further, the MIC in [6] was found to be 0.5 mg/L (≈ 0.687 µM); in [7], 0.13 mg/L (≈ 0.179 µM); with Proteus rettgeri, 1 mg/L (≈ 1.37 µM); against Eb. cloaceae ATCC 13047 it was 0.5 mg/L (≈ 0.687 µM); in the assay with E. coli R+TEM, 8 mg/L; in [8], 0.5 mg/L (≈ 0.687 µM). The ED50 in the assay on E. coli ATCC 11775 amounted to 0.4 mg/kg; in assay [9], 4.2 mg/kg.
